Test results reported in patent US20250280861A1, “SWEETENER COMPOSITIONS” (Firmenich Incorporated, priority 2022, published 2025).

Key:
panelists = assay: sweet enhancement taste tests (paired comparison, panelists choose the sweeter sample); type: in vivo, human; conditions: for HFCS and sucrose sweet enhancement effect: taste tests, pH 2.8, concentration far below its sweetness threshold
Procedure: Test samples containing either a sweetener (sucrose or high-fructose corn syrup (HFCS)) alone or in combination with a test compound were presented in pairs to a group of panelists who were asked to determine which of the samples was sweeter. Subjects refrained from eating or drinking (except water) for at least 1 hour prior to the test. Subjects rinsed with water several times to clean the mouth. The samples within a paired comparison test were presented in a randomized, counterbalanced order. Panelists had up to a 1 minute delay between taste tests to clear the mouth of any tastes. Binomial probability tables were used to determine the probability of the correct number of responses occurring for each test at alpha-0.05.

[1] = molecular target: T1, hT1R2/T1R3 taste receptor (Homo sapiens, UniProt Q7RTX0+Q8TE23); assay: agonist activity against the hT1R2/T1R3 taste receptor (sweet receptor based assay); type: cell-based; conditions: agonist activity, hT1R2/T1R3; read-out: Sweet EC50
T1 sequence (Q8TE23 20-839): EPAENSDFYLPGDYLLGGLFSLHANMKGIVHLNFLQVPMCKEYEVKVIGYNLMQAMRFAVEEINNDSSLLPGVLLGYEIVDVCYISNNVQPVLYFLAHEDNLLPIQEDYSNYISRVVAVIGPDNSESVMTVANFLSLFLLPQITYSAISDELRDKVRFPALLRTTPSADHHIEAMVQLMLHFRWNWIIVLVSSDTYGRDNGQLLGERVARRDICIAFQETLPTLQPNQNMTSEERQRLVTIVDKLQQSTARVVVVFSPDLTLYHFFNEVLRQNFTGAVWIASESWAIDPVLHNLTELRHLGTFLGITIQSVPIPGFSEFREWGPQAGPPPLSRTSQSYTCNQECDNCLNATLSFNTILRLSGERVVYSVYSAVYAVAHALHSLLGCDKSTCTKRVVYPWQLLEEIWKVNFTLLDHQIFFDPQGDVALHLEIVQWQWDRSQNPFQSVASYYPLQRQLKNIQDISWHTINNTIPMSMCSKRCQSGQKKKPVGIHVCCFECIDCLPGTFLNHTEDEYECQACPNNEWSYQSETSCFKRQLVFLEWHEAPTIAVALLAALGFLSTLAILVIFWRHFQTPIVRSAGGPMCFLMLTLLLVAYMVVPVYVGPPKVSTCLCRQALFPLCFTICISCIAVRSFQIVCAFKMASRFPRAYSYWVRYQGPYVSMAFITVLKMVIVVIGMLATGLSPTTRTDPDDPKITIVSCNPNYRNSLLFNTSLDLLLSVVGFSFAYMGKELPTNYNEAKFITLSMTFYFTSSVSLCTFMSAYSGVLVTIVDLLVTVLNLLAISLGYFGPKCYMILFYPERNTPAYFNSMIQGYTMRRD
T1 sequence (Q7RTX0 21-852): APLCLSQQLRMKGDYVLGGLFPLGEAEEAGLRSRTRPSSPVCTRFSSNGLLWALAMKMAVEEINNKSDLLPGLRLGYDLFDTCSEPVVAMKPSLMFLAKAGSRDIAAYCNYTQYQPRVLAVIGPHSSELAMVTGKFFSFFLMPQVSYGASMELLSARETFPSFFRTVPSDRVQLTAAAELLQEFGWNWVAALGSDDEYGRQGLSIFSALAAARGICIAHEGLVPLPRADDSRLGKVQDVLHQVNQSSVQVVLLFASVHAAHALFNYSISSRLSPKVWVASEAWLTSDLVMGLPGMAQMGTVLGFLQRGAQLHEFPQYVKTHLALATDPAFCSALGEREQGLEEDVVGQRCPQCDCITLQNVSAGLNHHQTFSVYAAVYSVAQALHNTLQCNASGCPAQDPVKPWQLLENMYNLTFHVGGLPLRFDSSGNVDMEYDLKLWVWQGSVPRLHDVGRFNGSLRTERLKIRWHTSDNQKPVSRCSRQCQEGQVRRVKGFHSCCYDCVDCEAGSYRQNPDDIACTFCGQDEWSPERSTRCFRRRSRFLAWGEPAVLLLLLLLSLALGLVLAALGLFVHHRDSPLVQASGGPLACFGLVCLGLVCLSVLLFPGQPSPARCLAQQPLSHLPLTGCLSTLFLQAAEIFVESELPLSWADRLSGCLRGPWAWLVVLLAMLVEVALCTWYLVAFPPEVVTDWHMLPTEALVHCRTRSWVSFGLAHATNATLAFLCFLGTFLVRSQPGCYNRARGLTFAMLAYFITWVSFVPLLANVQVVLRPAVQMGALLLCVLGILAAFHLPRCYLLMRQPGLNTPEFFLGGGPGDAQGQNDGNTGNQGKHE
Procedure: Compounds described in this application show moderate to potent agonist effect on the sweet receptor based assay. Potencies (EC50 values, e.g. see Tables 1-3) for agonist activity were measured against the hT1R2/T1R3 taste receptor. FIG. 1 exemplifies the data generated during the screening to determine EC50 values.

[2] = Study 1: 10 ppm Compound 78 vs 1.5% Sucrose, pH 2.8
[3] = Study 2: 7 ppm Compound 78 + 6% sucrose vs 8% Sucrose

SMILES | Results (which of the samples was sweeter) (panelists; [2]) | Results (which of the samples was sweeter) (panelists; [3]) | Results (which of the samples was sweeter) (panelists; Study 3: 9 ppm Compound 78 + 6% HFCS vs 8% HFCS) | HFCS and sucrose sweet enhancement effect (panelists) | HFCS and sucrose sweet enhancement effect (panelists; listed as compound 78) | sweetness compared with 1.5% sucrose (panelists; test #1, 10 ppm, pH 2.8) | sweetness compared with 8% sucrose (panelists; test #2, 10 ppm of compound 78+6% sucrose) | EC50 [1] [nM]
COCc1cccc(C2CCN(C(COC)C(=O)NCC(C)C)CC2)c1F (stereo not shown) [Compound 78, 2-(4-(2-fluoro-3-(methoxymethyl)phenyl)piperidin-1-yl)-N-isobutyl-3-methoxypropanamide] | 9 | 21 | 22 | remarkable HFCS and Sucrose sweet enhancement effect | significant enhancement | significantly less sweet | no significant difference in sweetness | 1300
OC[C@H]1O[C@@](CO)(O[C@H]2O[C@H](CO)[C@@H](O)[C@H](O)[C@H]2O)[C@@H](O)[C@@H]1O [Sucrose, sucrose, reference compound] | 42 | 24 | – | – | – | – | – | –
